Experimental data taken from US20240101538A1, “PROTEIN-PROTEIN INTERACTION MODULATORS OF AURORA KINASE A AND THEIR USE IN THE PREVENTION AND/OR TREATMENT OF CANCER” (EBERHARD KARLS UNIVERSITÄT TÜBINGEN, priority 2020, published 2024).
Read-outs that look alike come from different tables or passages of the source.

How the values were obtained:
NMP53^−/− cells = assay: Colony formation assay on NMP53^−/− cells; assay type: cell-based, murine; details: for minimal effective concentration: Mus musculus, 120 h, 5 days, read-out: EC (NMP53^−/−)
Text: To evaluate the effect of small molecules equipped with R-spine interacting moieties, the inventors screened a focused library of proprietary p38a MAP-Kinase inhibitors which were equipped with R-spine interacting pharmacophores. To this end, the inventors utilized a screening system as developed in Dauch et al.^2 The screening system is based on colony formation assays of cell lines isolated from Nras-driven, Trp53-deficient murine HCCs, whose development is dependent on MYC (NMP53^−/− cells), as well as Nras-driven, Cdkn2a^ARF-deficient murine HCCs, which develop independently of MYC (NMCdkn2a^ARF−/− cells). Importantly, NMP53^−/− cells are sensitive to AURKA inhibitors, which induce a conformational shift in AURKA, whereas NMCdkn2a^ARF−/− are not sensitive to such compounds.
For Colony Formation Assays, cells were seeded at a density of 50 000 cells per 6 well and next day treated with a 2-fold dilution series of the indicated compounds or the highest corresponding DMSO concentration as control. After 5 days, the cells were fixed with a 10% formaldehyde solution for 30 min, washed once with water, stained with a 0.5% crystal violet solution for 30 min and washed twice with water. The compounds effective concentration (EC) was determined according to the lowest concentration in the dilution series, that inhibited cell growth substantially. The resulting benzamide containing hit structure 1, with a twofold selectivity towards NMP53^−/− cells (effective concentration on NMP53^−/− cells (EC): 2 μM, EC on Cdkn2a^ARF−/−: 4 μM, FIG. 1), served as the inventors' starting point for further compound development.

Aurora A = Aurora A (Homo sapiens (Human), UniProt O14965); assay: ADP-Glo Kinase Assay with Aurora A Kinase Enzyme System; assay type: biochemical; details: compounds tested from 1 μM
Chain of Aurora A (O14965 whole entry): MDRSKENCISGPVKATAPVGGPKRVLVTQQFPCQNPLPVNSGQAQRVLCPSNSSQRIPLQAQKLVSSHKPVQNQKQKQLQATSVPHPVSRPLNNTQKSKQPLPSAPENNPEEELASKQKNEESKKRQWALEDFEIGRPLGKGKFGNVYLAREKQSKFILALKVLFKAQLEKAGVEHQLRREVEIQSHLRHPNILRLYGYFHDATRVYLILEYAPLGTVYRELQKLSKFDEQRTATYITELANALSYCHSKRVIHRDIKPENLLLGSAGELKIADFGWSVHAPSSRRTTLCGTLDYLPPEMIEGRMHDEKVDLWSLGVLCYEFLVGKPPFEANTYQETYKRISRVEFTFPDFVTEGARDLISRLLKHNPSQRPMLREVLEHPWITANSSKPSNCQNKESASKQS
Method: To measure the effect of the compounds on the activity of AURKA, the IC50 of the compounds was determined with the ADP-Glo™ Kinase Assay (Promega, V9101) and the Aurora A Kinase Enzyme System (Promega, V1931). The assay was performed according to the manufacturer's instructions in a white 384-well plate format (Corning Assay Plate, LOT 32216024) by using 1.4 ng/μl Aurora A, […] and 0.1 μg/μl myelin basic protein (MBP) substrate in a total volume of 6 μl (transferred with Integra viaflo 96/384 handheld channel pipette). To generate a dose-response curve, a 3-fold serial dilution of the compounds was tested starting from 1 μM. The kinase was pre-incubated for 10 min at RT with the respective compound, before the substrate mix containing MBP and ATP was added. After 60 min at RT, 6 μl of the ADP-Glo reagent were added and incubated for another 60 min at RT. Afterwards 12 μl of the detection reagent were added and incubated for 30 min at RT before the luminescence was measured with an integration time of 500 ms by using a Filter Max F5 multi-mode microplate reader from Molecular Devices. As a negative control, the reaction was performed with MBP, ATP and Aurora A only. […]

MYC = assay: Western blot analysis of cellular MYC levels in NMP53^−/− cells; assay type: cell-based, murine; details: 8 h after treatment with increasing concentrations
Method: A. Western blot analysis of MYC and AURKA in tumor cells (NMP53/cells) 8 h after treatment with increasing concentrations of compound 2c [N-(5-((4-(1H-pyrazole-4-yl)benzyl)amino)-2-fluorophenyl)-3-(furan-2-yl)propanamide]. Vinculin served as loading control (n=2) B. Western blot analysis of MYC and AURKA in tumor cells (NMP53^−/− cells) 8 h after treatment with increasing concentrations of compound 3a [N-(2-fluoro-5-((4-(1-methyl-1H-pyrazole-4-yl)benzyl)amino)phenyl)-3-(furan-2-yl)propanamide]. Vinculin served as loading control (n=2). […]
For western blot analysis, 2×10^6 cells were seeded per 10 cm dish and next day treated with the indicated compound concentrations. […] After addition of 4× Laemmli buffer (200 mM Tris-HCl pH 6.8, 8% SDS, 4% (3-mercaptoethanol, 40% glycerol, 0.33% bromophenol blue) the lysates were boiled for 5 min at 95° C. For western blot analysis, proteins were separated by SDS-polyacrylamide electrophoresis (using 25 μg of each sample) and transferred onto PVDF Immobilon-P membranes (Millipore). The blots were incubated with antibodies specific to MYC (Abeam ab32072, 1:1 000), AURKA (Abeam ab13824, 1:1 000) and Vinculin (Sigma Aldrich V9131-2 mL 1:10 000), followed by peroxidase-conjugated secondary antibodies. Proteins were detected by ChemiDoc MP Imaging System (Bio-Rad) using Clarity Western ECL Substrate (Bio-Rad).

320 wildtype kinases = assay: Kinome screen with 320 wildtype kinases; assay type: biochemical
[1] = colony formation assay, lowest concentration of 2-fold dilution series that inhibited cell growth substantially

Structure (SMILES)	higher cellular activity compared to the initial hit 1 (NMP53^−/− cells; EC on NMP53^−/− cells)	increased efficacy compared to compound 2a (NMP53^−/− cells; EC on NMP53^−/− cells)	minimal effective concentration (NMP53^−/− cells; [1])	minimal effective concentration (NMP53^−/− cells; colony formation assay)	selectivity for NMP53^−/− cells (NMP53^−/− cells; NMP53^−/− versus NMCdkn2a^ARF−/− cells, colony formation assay)	IC50 (Aurora A; read-out: IC50 (AURKA))	MYC levels (MYC)	off-targets in kinome screen (320 wildtype kinases; 100 nM)	selectivity score (320 wildtype kinases; 500 nM)	IC50 (AURKA) (Aurora A)	inhibition in kinome screen (320 wildtype kinases; 320 wildtype kinases)
O=C(CCc1ccco1)Nc1cc(NCc2ccc(-c3cn[nH]c3)cc2)ccc1F [Compound 2c, N-(5-((4-(1H-pyrazole-4-yl)benzyl)amino)-2-fluorophenyl)-3-(furan-2-yl)propanamide]	up to 16 fold	4 fold	0.125 µM	0.125 µM	up to 8 fold	259 nM	reduced in a concentration dependent manner	no off-targets	0.019	–	–
Cn1cc(-c2ccc(CNc3ccc(F)c(NC(=O)CCc4ccco4)c3)cc2)cn1 [Compound 3a, N-(2-fluoro-5-((4-(1-methyl-1H-pyrazole-4-yl)benzyl)amino)phenyl)-3-(furan-2-yl)propanamide]	–	–	0.031 µM	0.031 µM	–	–	reduced in a concentration dependent manner	–	–	no kinase inhibition	overall no inhibition
